Assay results as given in paper PMC8480901 (PLoS ONE, 2021).
“And” between values parts separate entries of the source, which are not always exact repeats. Equal values may be shown once.

Tested on: human PBMCs
Test: LPS-induced cytokine and chemokine levels in human PBMC supernatant (Luminex, ELISA)
Format: cell-based
Settings: for CCl2, % reduction / CXCL1 % reduction / CXCL2 % reduction / MMP9 % reduction / CCl2, Mean / CXCL1, Mean / CXCL2, Mean / MMP9, Mean / CCl2, individual value / CXCL1, individual value / CXCL2, individual value / MMP9, individual value: LPS-stimulated PBMC supernatant; for CCl2, Mean / CXCL1, Mean / CXCL2, Mean / MMP9, Mean: sample size 2; for CCl2, individual value / CXCL1, individual value / CXCL2, individual value / MMP9, individual value: single replicate; for IL-1β % reduction / IL-1β [pg/mL], Mean / IL-1β [pg/mL], individual value / IL-6 % reduction / IL-6 [pg/mL], Mean / IL-6 [pg/mL], individual value / IL-8 % reduction / IL-8 [pg/mL], Mean / IL-8 [pg/mL], individual value / TNF-α % reduction / TNF-α [pg/mL], Mean / TNF-α [pg/mL], individual value: LPS-stimulated human PBMC supernatant

## C[C@@H]1C[C@H]2[C@@H]3CCC4=CC(=O)C=C[C@]4(C)[C@@]3(F)[C@@H](O)C[C@]2(C)[C@@]1(O)C(=O)CO [Dexamethasone]
0.0003 µM
  CCl2, % reduction: -4.68%
  CXCL1 % reduction: -4%
  CXCL2 % reduction: 4%
  MMP9 % reduction: 3.74%
  CCl2, Mean: 1323 pg/mL
  CXCL1, Mean: 6192 pg/mL
  CXCL2, Mean: 4849 pg/mL
  MMP9, Mean: 2934 pg/mL
  CCl2, individual value: 1383 pg/mL and 1264 pg/mL
  CXCL1, individual value: 6146 pg/mL and 6238 pg/mL
  CXCL2, individual value: 4762 pg/mL and 4936 pg/mL
  MMP9, individual value: 2852 pg/mL and 3016 pg/mL
  IL-1β % reduction: -0.241%
  IL-1β [pg/mL], Mean: 12816 pg/mL
  IL-1β [pg/mL], individual value: 13584 pg/mL and 12048 pg/mL
  IL-6 % reduction: 11%
  IL-6 [pg/mL], Mean: 31175 pg/mL
  IL-6 [pg/mL], individual value: 28443 pg/mL and 33908 pg/mL
  IL-8 % reduction: 3.74%
  IL-8 [pg/mL], Mean: 2934 pg/mL
  IL-8 [pg/mL], individual value: 2852 pg/mL and 3016 pg/mL
  TNF-α % reduction: -22%
  TNF-α [pg/mL], Mean: 10856 pg/mL
  TNF-α [pg/mL], individual value: 11484 pg/mL and 10228 pg/mL
0.001 µM
  CCl2, % reduction: 0.423%
  CXCL1 % reduction: 1.28%
  CXCL2 % reduction: 3%
  MMP9 % reduction: 7%
  CCl2, Mean: 1261 pg/mL
  CXCL1, Mean: 5877 pg/mL
  CXCL2, Mean: 4905 pg/mL
  MMP9, Mean: 2887 pg/mL
  CCl2, individual value: 1275 pg/mL and 1246 pg/mL
  CXCL1, individual value: 5806 pg/mL and 5947 pg/mL
  CXCL2, individual value: 4830 pg/mL and 4980 pg/mL
  MMP9, individual value: 2894 pg/mL and 2879 pg/mL
  IL-1β % reduction: -2.29%
  IL-1β [pg/mL], Mean: 13078 pg/mL
  IL-1β [pg/mL], individual value: 12492 pg/mL and 13663 pg/mL
  IL-6 % reduction: 15%
  IL-6 [pg/mL], Mean: 29537 pg/mL
  IL-6 [pg/mL], individual value: 27758 pg/mL and 31316 pg/mL
  IL-8 % reduction: 7%
  IL-8 [pg/mL], Mean: 2887 pg/mL
  IL-8 [pg/mL], individual value: 2894 pg/mL and 2879 pg/mL
  TNF-α % reduction: 26%
  TNF-α [pg/mL], Mean: 6648 pg/mL
  TNF-α [pg/mL], individual value: 6422 pg/mL and 6874 pg/mL
0.003 µM
  CCl2, % reduction: 17%
  CXCL1 % reduction: 6%
  CXCL2 % reduction: 4%
  MMP9 % reduction: 16%
  CCl2, Mean: 1056 pg/mL
  CXCL1, Mean: 5588 pg/mL
  CXCL2, Mean: 4851 pg/mL
  MMP9, Mean: 2739 pg/mL
  CCl2, individual value: 1044 pg/mL and 1067 pg/mL
  CXCL1, individual value: 5506 pg/mL and 5671 pg/mL
  CXCL2, individual value: 4888 pg/mL and 4814 pg/mL
  MMP9, individual value: 2727 pg/mL and 2751 pg/mL
  IL-1β % reduction: 3%
  IL-1β [pg/mL], Mean: 12382 pg/mL
  IL-1β [pg/mL], individual value: 12441 pg/mL and 12322 pg/mL
  IL-6 % reduction: 23%
  IL-6 [pg/mL], Mean: 26733 pg/mL
  IL-6 [pg/mL], individual value: 25302 pg/mL and 28163 pg/mL
  IL-8 % reduction: 16%
  IL-8 [pg/mL], Mean: 2739 pg/mL
  IL-8 [pg/mL], individual value: 2727 pg/mL and 2751 pg/mL
  TNF-α % reduction: 36%
  TNF-α [pg/mL], Mean: 5707 pg/mL
  TNF-α [pg/mL], individual value: 6398 pg/mL and 5017 pg/mL
0.01 µM
  CCl2, % reduction: 33%
  CXCL1 % reduction: 16%
  CXCL2 % reduction: 17%
  MMP9 % reduction: 23%
  CCl2, Mean: 860 pg/mL
  CXCL1, Mean: 5032 pg/mL
  CXCL2, Mean: 4217 pg/mL
  MMP9, Mean: 2621 pg/mL
  CCl2, individual value: 863 pg/mL and 858 pg/mL
  CXCL1, individual value: 4889 pg/mL and 5174 pg/mL
  CXCL2, individual value: 4342 pg/mL and 4092 pg/mL
  MMP9, individual value: 2587 pg/mL and 2655 pg/mL
  IL-1β % reduction: 12%
  IL-1β [pg/mL], Mean: 11212 pg/mL
  IL-1β [pg/mL], individual value: 11146 pg/mL and 11278 pg/mL
  IL-6 % reduction: 26%
  IL-6 [pg/mL], Mean: 25776 pg/mL
  IL-6 [pg/mL], individual value: 24216 pg/mL and 27336 pg/mL
  IL-8 % reduction: 23%
  IL-8 [pg/mL], Mean: 2621 pg/mL
  IL-8 [pg/mL], individual value: 2587 pg/mL and 2655 pg/mL
  TNF-α % reduction: 34%
  TNF-α [pg/mL], Mean: 5893 pg/mL
  TNF-α [pg/mL], individual value: 5929 pg/mL and 5857 pg/mL
0.03 µM
  CCl2, % reduction: 46%
  CXCL1 % reduction: 25%
  CXCL2 % reduction: 30%
  MMP9 % reduction: 24%
  CCl2, Mean: 701 pg/mL
  CXCL1, Mean: 4474 pg/mL
  CXCL2, Mean: 3565 pg/mL
  MMP9, Mean: 2601 pg/mL
  CCl2, individual value: 757 pg/mL and 644 pg/mL
  CXCL1, individual value: 4471 pg/mL and 4477 pg/mL
  CXCL2, individual value: 3377 pg/mL and 3753 pg/mL
  MMP9, individual value: 2572 pg/mL and 2630 pg/mL
  IL-1β % reduction: 36%
  IL-1β [pg/mL], Mean: 8206 pg/mL
  IL-1β [pg/mL], individual value: 8428 pg/mL and 7983 pg/mL
  IL-6 % reduction: 46%
  IL-6 [pg/mL], Mean: 19008 pg/mL
  IL-6 [pg/mL], individual value: 18119 pg/mL and 19897 pg/mL
  IL-8 % reduction: 24%
  IL-8 [pg/mL], Mean: 2601 pg/mL
  IL-8 [pg/mL], individual value: 2572 pg/mL and 2630 pg/mL
  TNF-α % reduction: 61%
  TNF-α [pg/mL], Mean: 3547 pg/mL
  TNF-α [pg/mL], individual value: 4619 pg/mL and 2475 pg/mL
0.1 µM
  CCl2, % reduction: 56%
  CXCL1 % reduction: 35%
  CXCL2 % reduction: 40%
  MMP9 % reduction: 39%
  CCl2, Mean: 584 pg/mL
  CXCL1, Mean: 3861 pg/mL
  CXCL2, Mean: 3024 pg/mL
  MMP9, Mean: 2364 pg/mL
  CCl2, individual value: 488 pg/mL and 679 pg/mL
  CXCL1, individual value: 3279 pg/mL and 4443 pg/mL
  CXCL2, individual value: 2644 pg/mL and 3404 pg/mL
  MMP9, individual value: 2111 pg/mL and 2616 pg/mL
  IL-1β % reduction: 49%
  IL-1β [pg/mL], Mean: 6554 pg/mL
  IL-1β [pg/mL], individual value: 6360 pg/mL and 6748 pg/mL
  IL-6 % reduction: 46%
  IL-6 [pg/mL], Mean: 18754 pg/mL
  IL-6 [pg/mL], individual value: 18604 pg/mL and 18905 pg/mL
  IL-8 % reduction: 39%
  IL-8 [pg/mL], Mean: 2364 pg/mL
  IL-8 [pg/mL], individual value: 2111 pg/mL and 2616 pg/mL
  TNF-α % reduction: 76%
  TNF-α [pg/mL], Mean: 2172 pg/mL
  TNF-α [pg/mL], individual value: 1964 pg/mL and 2380 pg/mL
0.3 µM
  CCl2, % reduction: 55%
  CXCL1 % reduction: 32%
  CXCL2 % reduction: 49%
  MMP9 % reduction: 26%
  CCl2, Mean: 591 pg/mL
  CXCL1, Mean: 4087 pg/mL
  CXCL2, Mean: 2585 pg/mL
  MMP9, Mean: 2569 pg/mL
  CCl2, individual value: 580 pg/mL and 603 pg/mL
  CXCL1, individual value: 3996 pg/mL and 4178 pg/mL
  CXCL2, individual value: 2570 pg/mL and 2599 pg/mL
  MMP9, individual value: 2679 pg/mL and 2458 pg/mL
  IL-1β % reduction: 47%
  IL-1β [pg/mL], Mean: 6792 pg/mL
  IL-1β [pg/mL], individual value: 7094 pg/mL and 6491 pg/mL
  IL-6 % reduction: 53%
  IL-6 [pg/mL], Mean: 16544 pg/mL
  IL-6 [pg/mL], individual value: 15027 pg/mL and 18061 pg/mL
  IL-8 % reduction: 26%
  IL-8 [pg/mL], Mean: 2569 pg/mL
  IL-8 [pg/mL], individual value: 2679 pg/mL and 2458 pg/mL
  TNF-α % reduction: 67%
  TNF-α [pg/mL], Mean: 2969 pg/mL
  TNF-α [pg/mL], individual value: 3059 pg/mL and 2880 pg/mL
1 µM
  CCl2, % reduction: 58%
  CXCL1 % reduction: 32%
  CXCL2 % reduction: 48%
  MMP9 % reduction: 46%
  CCl2, Mean: 551 pg/mL
  CXCL1, Mean: 4042 pg/mL
  CXCL2, Mean: 2659 pg/mL
  MMP9, Mean: 2244 pg/mL
  CCl2, individual value: 591 pg/mL and 510 pg/mL
  CXCL1, individual value: 4057 pg/mL and 4026 pg/mL
  CXCL2, individual value: 2573 pg/mL and 2746 pg/mL
  MMP9, individual value: 2290 pg/mL and 2198 pg/mL
  IL-1β % reduction: 47%
  IL-1β [pg/mL], Mean: 6720 pg/mL
  IL-1β [pg/mL], individual value: 7115 pg/mL and 6325 pg/mL
  IL-6 % reduction: 53%
  IL-6 [pg/mL], Mean: 16339 pg/mL
  IL-6 [pg/mL], individual value: 14576 pg/mL and 18103 pg/mL
  IL-8 % reduction: 46%
  IL-8 [pg/mL], Mean: 2244 pg/mL
  IL-8 [pg/mL], individual value: 2290 pg/mL and 2198 pg/mL
  TNF-α % reduction: 74%
  TNF-α [pg/mL], Mean: 2402 pg/mL
  TNF-α [pg/mL], individual value: 1732 pg/mL and 3073 pg/mL
Human PBMCs, 0.0003-1 µM
  all measured LPS-induced cytokines and chemokines in supernatant: dose-dependent reductions
